Earlier results, collected in US12458674B2, “M13 phage based gene therapy platform” (Massachusetts Institute of Technology, priority 2021, dated 2025).

Conditions: in vivo

CSF to plasma ratio: about 20%
SMILES: Cn1nnc2c(C(N)=O)ncn2c1=O [temozolomide]
